According to patent US5116815A, “PF 1022 substance, method of treating helminthic parasitic infection and anthelmintic composition” (Meiji Seika Kaisha Ltd., priority 1989, dated 1992):
“And” between values parts separate entries of the source, which are not always exact repeats. Identical values can stand only once.

How the values were obtained:
Assay type in all cases: in vivo
[1] = test system: large intestinal roundworms (Ascaris suum); test: Anthelmintic activity against swine large intestinal roundworms; conditions: oral in feed; for Number of remaining worms: autopsy one week; for EPG Before administration: baseline; for EPG Upon autopsy: one week
Protocol: The anthelmintic effect of the PF 1022 substance in swine was evaluated by orally administering the substance to swine found to be infected with large intestinal roundworms (Ascaris suum) by scatoscopy.
The PF 1022 substance was administered either once at 5 mg/kg or 10 mg/kg, or at a daily dose of 1.25 mg/kg, 2.5 mg/kg or 5 mg/kg once daily for consecutive 2 days by admixing an amount of the substance as such equal to each dose with a small portion of the ordinary feed. After administration, the worms eliminated were counted and the feces examined for the number of roundworm eggs per gram of feces (EPG) daily. One week after commencement of administration, the animals were sacrificed and autopsied for counting the worms remaining in the intestinal tract.

[2] = test system: feline roundworms (Toxocara cati); test: Anthelmintic activity against cat large intestinal roundworms; conditions: cats
Protocol: The PF 1022 substance was evaluated for its anthelmintic effect on feline roundworms (Toxocara cati) by orally administering the substance once to 12 cats found to be infected with the roundworms by scatoscopy.
The infected cats were used in three groups of 4 animals and given 0.2 mg/kg, 1 mg/kg and 5 mg/kg of the substance, respectively, admixed as such with a small portion of ordinary feed. The observation items were the number of roundworms eliminated during the 7 day observation period following administration and the number of remaining roundworms as found upon autopsy performed 7 days after administration.

[3] = test system: feline hookworms (Ancylostoma tubaeforme); test: Anthelmintic activity against cat hookworms; conditions: cats
Protocol: The PF 1022 substance was evaluated for its anthelmintic effect on feline hookworms (Ancylostoma tubaeforme) by orally administering the substance once to 12 cats found to be infected with said worms by scatoscopy.
The infected cats were divided into three groups of 4 animals and respectively given 0.2 mg/kg, 1 mg/kg and 5 mg/kg of the substance admixed as such with a small portion of the ordinary feed. The observation items were the number of worms eliminated during 7 days following administration and the number of remaining worms found upon autopsy 7 days after administration.

[4] = test system: strongyles (Strongylus spp.); test: Anthelmintic effect on equine strongyles; conditions: horse, oral 5 mg/kg Day 0 and 2.5 mg/kg Day 1
Protocol: The PF 1022 substance was evaluated for its anthelmintic effect in a horse found by scatoscopy to be infected with roundworms (Parascaris equorum) and strongyles (Strongylus spp.) by orally administering the substance thereto.
The PF 1022 substance was suspended in water and administered with a stomach catheter at 5 mg/kg on the first day and at 2.5 mg/kg on the second day. For both the roundworms and strongyles, parasite eggs in each gram of feces (EPG) as well as parasites eliminated were counted daily for one week following the first administration. For strongyles, the number of worms in 100 g of feces was determined.

[5] = 2 administrations, 1.25 mg/kg/administration, 1.25 mg/kg
[6] = 2 administrations, 2.5 mg/kg/administration
[7] = 2 administrations, 5 mg/kg/administration
[8] = single oral dose 1 mg/kg, 1 mg/kg
[9] = single oral dose 5 mg/kg, autopsy 7 days

Compound: CC(C)C[C@H]1C(=O)O[C@H](Cc2ccccc2)C(=O)N(C)[C@@H](CC(C)C)C(=O)O[C@H](C)C(=O)N(C)[C@@H](CC(C)C)C(=O)O[C@H](Cc2ccccc2)C(=O)N(C)[C@@H](CC(C)C)C(=O)O[C@H](C)C(=O)N1C [PF 1022 substance]
- Number of worms eliminated ([1]; 1 administration, 5 mg/kg): 12
- Number of remaining worms ([1]; 1 administration, 5 mg/kg): 13
- EPG Before administration ([1]; 1 administration, 5 mg/kg): 99000
- EPG Upon autopsy ([1]; 1 administration, 5 mg/kg): 8000
- Number of worms eliminated ([1]; 1 administration, 10 mg/kg): 7
- Number of remaining worms ([1]; 1 administration, 10 mg/kg): 5
- EPG Before administration ([1]; 1 administration, 10 mg/kg): 2100
- EPG Upon autopsy ([1]; 1 administration, 10 mg/kg): 200
- Number of worms eliminated ([1]; 2 administrations, 1.25 mg/kg/administration): 2
- % Elimination [1, 5]: 18.2% and 33.3%
- EPG Before administration [1, 5]: 2300 and 1800
- Number of remaining worms [1, 6]: 1
- EPG Before administration ([1]; 2 administrations, 2.5 mg/kg/administration, 2.5 mg/kg): 3300 and 3800
- EPG Upon autopsy [1, 6]: 0
- % Elimination [1, 7]: 100%
- Number of worms eliminated [1, 7]: 13
- Number of remaining worms [1, 7]: 0
- EPG Before administration [1, 7]: 2700
- EPG Upon autopsy [1, 7]: 0
- % Elimination ([2]; single oral dose 0.2 mg/kg, 0.2 mg/kg): 100% and 50.0%
- % Elimination [2, 8]: 100% and 80.0%
- % Elimination ([2]; single oral dose 5 mg/kg): 100%
- Number of remaining worms [2, 9]: 0
- % Elimination [3, 8]: 62.5% and 100% and 87.5% and 98.2%
- % Elimination ([3]; single oral dose 5 mg/kg): 100%
- Number of remaining worms [3, 9]: 0
- EPG ([4]; Day 0): 265
- Number of worms eliminated ([4]; Day 0): 0 per 100 g feces
- EPG ([4]; Day 1): 82
- Number of worms eliminated ([4]; Day 1): 82 per 100 g feces
- EPG ([4]; Day 2): 0.6
- Number of worms eliminated ([4]; Day 2): 0 per 100 g feces
- EPG ([4]; Day 3): 0.4
- Number of worms eliminated ([4]; Day 3): 0 per 100 g feces
- EPG ([4]; Day 4): 0
- Number of worms eliminated ([4]; Day 4): 0 per 100 g feces
- EPG ([4]; Day 5): 0
- Number of worms eliminated ([4]; Day 5): 0 per 100 g feces
- EPG ([4]; Day 6): 0.2
- Number of worms eliminated ([4]; Day 6): 0 per 100 g feces
- Number of worms eliminated ([4]; Day 7): 0 per 100 g feces
